For two compounds, Activity results are on record in ChEMBL document CHEMBL1145448, “Synthesis and evaluation of tripodal peptide analogues for cellular delivery of phosphopeptides” (J Med Chem, 2007).

Non-standard residues stand in square brackets, D forms with d. Residues, ends and D or L forms follow the SMILES beside them. *: point of attachment. X1 = O=C(O)c1cc(C(=O)*)ccc1-c1c2ccc(=O)cc-2oc2cc(O)ccc12; pY = N[C@@H](Cc1ccc(OP(=O)(O)O)cc1)C(=O)O; 12Ado = NCCCCCCCCCCCC(=O)O A value given as a limit tells only on which side of the number the result lay.

The nature of data set [1]: Cellular uptake in BT20 cells in presence of 77 mM sodium azide. The data set is classed as ADME, cell-based. Particulars: human, bt-20; call rule not given here.
Data set [2] can be described thus: Cytotoxicity against BT20 cells by cell viability assay. Particulars: human, bt-20. The format is cell-based.

Take `N=C(N)NCCC[C@H](NC(=O)CCCCCCCCCCCNC(=O)[C@H](CCCNC(=N)N)NC(=O)CCCCCCCCCCCNC(=O)[C@H](CCCCN)NC(=O)CNC(=O)c1ccc(-c2c3ccc(=O)cc-3oc3cc(O)ccc23)c(C(=O)O)c1)C(=O)O` (X1-GK[12Ado]R[12Ado]R-OH): the Activity result in data set [1] is reported as “Active”; in data set [2], over 96%.

Compound `CC[C@H](C)[C@H](NC(=O)[C@H](CCC(=O)O)NC(=O)[C@H](CCC(=O)O)NC(=O)[C@H](Cc1ccc(OP(=O)(O)O)cc1)NC(=O)CNC(=O)c1ccc(-c2c3ccc(=O)cc-3oc3cc(O)ccc23)c(C(=O)O)c1)C(=O)O` (X1-G[pY]EEI-OH) returned an Activity in data set [2] of over 96%.
